Key:
14-3-3σ/ERα [1] = molecular target: T1, 14-3-3σ/ERα (Homo sapiens, UniProt P03372+P31947); test: Mass spectrometry dose response, compound binding to 14-3-3σ in the presence of ERα phosphopeptide; conditions: 100 nM compound, 100 nM 14-3-3σ, ERα-peptide 2 µM
T1 construct: The 14-3-3 σ isoform (full-length for mass spectrometry and fluorescence anisotropy assays, ΔC for crystallography); made in house; host or cells: E. coli Rosetta 2(DE3)pLysS, pPROEX HTb vector
Description: (§1) Two orthogonal assays were developed for screening. For the primary assay, mass spectrometry (MS) was used to monitor the formation of the covalent bond between the compound and the native cysteine (Cys38 on 14-3-3σ) (Figure 1D). The assay was first performed in the absence of peptide to determine binding to 14-3-3σ only (apo screening, D1) and then in the presence of both 14-3-3σ and the peptide as an indication of how much the peptide stabilized compound binding (D2). […] As a secondary assay, fluorescence anisotropy (FA) was used. In this case, compounds were titrated to mixtures of 14-3-3σ and FAM-labeled peptides. […] Thus, the two assays are highly complementary; the MS assay reports on compound binding and the FA assay reports on peptide binding. […]
(§2) Mass spectrometry dose response assays were performed on a Waters Acquity UPLC/ Xevo G2-XS Q-Tof mass spectrometer. A Waters UPLC Protein BEH-C4 Column (300 Å, 1.7 μm, 2.1 mm x 50 mm) was used to desalt the samples prior to application on the mass spectrometer. For 19-point MS dose responses, 50 mM compound stocks in DMSO were serially diluted in 3-fold increment in a master plate, then 1000 nl of the compounds were transferred in the assay plates. Master mixes containing 100 nM full-length wild type 14-3-3σ in the absence or presence of […]
(§3) Assay buffer was TRIS (10 mM, pH 8.0) and final volume per well was 50 μl, with final top concentration of compounds dose response series at 1 mM. The reaction mixtures were incubated for 1h at rt before subjected to MS. Four measurements (1h, 8h, 16h, 24h) were performed for time-course experiments. The injection volume for each sample was 6 μl. 24 μl of sample were needed for the time-course experiments, so the total volume in the assay plate was adjusted to 50 μl, to account for the dead volume in the injections. Data collection and automated processing followed a custom workflow, as previously described.1 z Plots were created using GraphPad Prism with the log(agonist) vs. response (variable slope, four parameters) fitting model. […]

14-3-3σ/ERα [2] = molecular target: T1, 14-3-3σ/ERα; test: Fluorescence anisotropy compound titration, FAM-labeled ERα peptide; assay type: binding; conditions: 10 nM ERα-FAM labeled peptide, 1 µM 14-3-3σ, overnight incubation (24 h); read-out: EC50 value ERα (FA compound titration)
Description: as §1
diluted in buffer (10 mM HEPES, pH 7.5, 150 mM NaCl, 0.1% Tween20, 1 mg/mL Bovine Serum Albumin (BSA; Sigma-Aldrich). Final DMSO in the assay was always 1%. Dilution series of 14-3-3 proteins or compounds were made in […]
Compound titrations were made by titrating the compound in a 2-fold dilution series (starting at 500 or 1000 µM) to a mix of fluorescein-labeled peptide (10 nM) and 14-3-3σ (concentration at approximately the EC20 to EC30 value of the protein-peptide complex; 1 µM for ERα and 5 µM for C-RAF). Using the ~EC25 value makes the assay sensitive for measuring an increase in PPI formation. Fluorescence anisotropy measurements were performed directly and after overnight incubation at room temperature. […]
Wells containing only FAM-peptide were used to set as G-factor at 35 mP. Data reported are at endpoint. EC50 and apparent Kd values were obtained from fitting the data with a four-parameter logistic model (4PL) in GraphPad Prism 7 for Windows. Data was obtained and averaged based on either three (compound titrations) or two (protein titrations) independent experiments.

14-3-3σ = molecular target: T2, 14-3-3σ (Homo sapiens, UniProt P31947); test: Mass spectrometry dose response, compound binding to 14-3-3σ in the absence of peptide (apo); conditions: 100 nM compound, 100 nM 14-3-3σ
T2 construct: The 14-3-3 σ isoform (full-length for mass spectrometry and fluorescence anisotropy assays, ΔC for crystallography); made in house; host or cells: E. coli Rosetta 2(DE3)pLysS, pPROEX HTb vector
T2 sequence (P31947 1-248): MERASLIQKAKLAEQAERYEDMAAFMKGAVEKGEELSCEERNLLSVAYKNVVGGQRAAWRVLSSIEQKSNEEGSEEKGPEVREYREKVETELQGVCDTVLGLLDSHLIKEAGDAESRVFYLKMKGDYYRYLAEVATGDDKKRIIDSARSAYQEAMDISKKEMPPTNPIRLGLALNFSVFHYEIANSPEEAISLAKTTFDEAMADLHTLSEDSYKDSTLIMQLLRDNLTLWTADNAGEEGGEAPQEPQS
Description: as §1, §2, §3

14-3-3σ/C-RAF = molecular target: T3, 14-3-3σ/C-RAF (Homo sapiens, UniProt P31947); test: Mass spectrometry dose response, compound binding to 14-3-3σ in the presence of C-RAF phosphopeptide; conditions: 100 nM compound, 100 nM 14-3-3σ, C-RAF peptide 18 µM
T3 construct: The 14-3-3 σ isoform (full-length for mass spectrometry and fluorescence anisotropy assays, ΔC for crystallography); made in house; host or cells: E. coli Rosetta 2(DE3)pLysS, pPROEX HTb vector
T3 sequence (P31947 1-248): T2 sequence (P31947 1-248)
Description: as §1, §2, §3

Row | Compound | Percentage (%) bound of compound to 14-3-3σ, ERα 1h (14-3-3σ/ERα [1]) | Percentage (%) bound of compound to 14-3-3σ, ERα 8h (14-3-3σ/ERα [1]) | Percentage (%) bound of compound to 14-3-3σ, ERα 16h (14-3-3σ/ERα [1]) | Percentage (%) bound of compound to 14-3-3σ, ERα 24h (14-3-3σ/ERα [1]) | EC50 (14-3-3σ/ERα [2]) | Percentage (%) bound of compound to 14-3-3σ, APO 1h (14-3-3σ) | Percentage (%) bound of compound to 14-3-3σ, APO 8h (14-3-3σ) | Percentage (%) bound of compound to 14-3-3σ, APO 16h (14-3-3σ) | Percentage (%) bound of compound to 14-3-3σ, APO 24h (14-3-3σ) | Percentage (%) bound of compound to 14-3-3σ, CRAF 1h (14-3-3σ/C-RAF) | Percentage (%) bound of compound to 14-3-3σ, CRAF 8h (14-3-3σ/C-RAF) | Percentage (%) bound of compound to 14-3-3σ, CRAF 24h (14-3-3σ/C-RAF; 24h) | Percentage (%) bound of compound to 14-3-3σ, CRAF 24h (14-3-3σ/C-RAF; head prints 24h)
1 | CC(C)(Oc1ccc(Cl)cc1)C(=O)N1CCC(CCC(=O)CCl)CC1 [compound 37] | 56.4% | 97.6% | 100% | 100% | 44 ± 2 µM | 12.0% | 40.8% | 72.0% | 90.3% | 98.8% | 99.9% | 100% | 99.9%
2 | O=C(CCl)NCC1CCN(C(=O)C2(Nc3ccccc3)CCC2)CC1 [compound 98] | 0% | 0% | 0% | 0% | > 150 µM | 0% | 1.5% | 4.0% | 4.0% | 0% | 0% | 0% | 0%
3 | Cl.O=C(CCl)NCC1CCN(C(=O)C2(Nc3ccccc3)CCNCC2)CC1 [compound 133] | 4.5% | 12.9% | 26.7% | 47.0% | 115 µM | 0.7% | 1.1% | 1.2% | 10.3% | 0% | 1.0% | 1.1% | 1.1%
4 | Cl.NC1CCC(Oc2ccccc2)(C(=O)N2CCC(CNC(=O)CCl)CC2)CC1 (stereo not drawn) [compound 139] | 0% | 0% | 0% | 1.0% | > 150 µM | 0% | 0% | 2.0% | 2.0% | 0% | 0% | 1.0% | 0%
5 | Cl.NC1CCC(Nc2ccccc2)(C(=O)N2CCC(CNC(=O)CCl)CC2)CC1 (stereo not drawn) [compound 141] | 1.0% | 10.2% | 83.3% | 89.9% | > 150 µM | 0% | 0% | 0.8% | 25.6% | 1.0% | 2.9% | 22.1% | 16.3%
6 | O=C(CCl)NCCC1CCN(C(=O)C2(Nc3ccc(Cl)cc3)CCOCC2)CC1 [compound 148] | 0% | 0% | 1.0% | 1.1% | 92 ± 8 µM | 0% | 0% | 0% | 0% | 0% | 0% | 0% | 0%

Now from value to molecule:

Row | Percentage (%) bound of compound to 14-3-3σ, ERα 1h (14-3-3σ/ERα [1]) | Percentage (%) bound of compound to 14-3-3σ, ERα 8h (14-3-3σ/ERα [1]) | Percentage (%) bound of compound to 14-3-3σ, ERα 16h (14-3-3σ/ERα [1]) | Percentage (%) bound of compound to 14-3-3σ, ERα 24h (14-3-3σ/ERα [1]) | EC50 (14-3-3σ/ERα [2]) | Percentage (%) bound of compound to 14-3-3σ, APO 1h (14-3-3σ) | Percentage (%) bound of compound to 14-3-3σ, APO 8h (14-3-3σ) | Percentage (%) bound of compound to 14-3-3σ, APO 16h (14-3-3σ) | Percentage (%) bound of compound to 14-3-3σ, APO 24h (14-3-3σ) | Percentage (%) bound of compound to 14-3-3σ, CRAF 1h (14-3-3σ/C-RAF) | Percentage (%) bound of compound to 14-3-3σ, CRAF 8h (14-3-3σ/C-RAF) | Percentage (%) bound of compound to 14-3-3σ, CRAF 24h (14-3-3σ/C-RAF; 24h) | Percentage (%) bound of compound to 14-3-3σ, CRAF 24h (14-3-3σ/C-RAF; head prints 24h) | Compound
7 | 0.8% | 4.7% | 11.0% | 18.8% | 33 ± 1 µM | 0% | 0% | 1.0% | 1.0% | 4.7% | 8.0% | 32.4% | 11.6% | C=CS(=O)(=O)NCC1CCN(C(=O)C(C)(C)Oc2ccc(Cl)cc2)CC1 [compound 17]
8 | 0% | 0% | 0% | 0% | > 150 µM | 0% | 0% | 0% | 0% | 0% | 0% | 0% | 0% | O=C(CCl)NCC1CCN(C(=O)C2(Nc3ccccc3)CCCCC2)CC1 [compound 121]
9 | 6.5% | 20.6% | 48.0% | 75.0% | 16 ± 2 µM | 0% | 0% | 1.8% | 2.2% | 0% | 1.0% | 3.7% | 1.5% | O=C(CCl)NCCC1CCN(C(=O)C2(Nc3ccc(Cl)cc3)CCNCC2)CC1 [compound 151]

Reference: PMC10515640, “Structure-Based Optimization of Covalent, Small-Molecule Stabilizers of the 14-3-3σ/ERα Protein–Protein Interaction from Nonselective Fragments” (Journal of the American Chemical Society, 2023)
